The supplement of paper PMC10307832

Key:
Assay in all cases: relative viability (nuclei count vs DMSO), 5 days (fraction); higher = more cells survive
Vemurafenib + Foretinib = compound: CCCS(=O)(=O)Nc1ccc(F)c(C(=O)c2c[nH]c3ncc(-c4ccc(Cl)cc4)cc23)c1F [Vemurafenib] + COc1cc2c(Oc3ccc(NC(=O)C4(C(=O)Nc5ccc(F)cc5)CC4)cc3F)ccnc2cc1OCCCN1CCOCC1 [Foretinib] (partner 0.25 µM)
Outline: (§1)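 Each reported value is a median over duplicate plates. It expresses relative viability: treated-well nuclei count divided by vehicle-well nuclei count. Lung cancer cell lines in 1536-well plates were dosed by pin tool a day after seeding, alone with one drug or with a fixed anchor-drug dose plus five library-drug doses (not always all listed) in √10 steps, and nuclei were counted after 5 days.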

Vemurafenib + AZD7762 = compound: CCCS(=O)(=O)Nc1ccc(F)c(C(=O)c2c[nH]c3ncc(-c4ccc(Cl)cc4)cc23)c1F [Vemurafenib] + NC(=O)Nc1cc(-c2cccc(F)c2)sc1C(=O)N[C@H]1CCCNC1 [AZD7762] (partner 0.2 µM)
Outline: as §1

Vemurafenib + Pictilisib = compound: CCCS(=O)(=O)Nc1ccc(F)c(C(=O)c2c[nH]c3ncc(-c4ccc(Cl)cc4)cc23)c1F [Vemurafenib] + CS(=O)(=O)N1CCN(Cc2cc3nc(-c4cccc5[nH]ncc45)nc(N4CCOCC4)c3s2)CC1 [Pictilisib] (partner 1 µM)
Outline: as §1

OSI-027 + Crizotinib = compound: COc1cccc2cc(-c3nc([C@H]4CC[C@H](C(=O)O)CC4)n4ncnc(N)c34)[nH]c12 [OSI-027] + C[C@@H](Oc1cc(-c2cnn(C3CCNCC3)c2)cnc1N)c1c(Cl)ccc(F)c1Cl [Crizotinib] (partner 1 µM)
Outline: as §1

Cell Line	relative viability (Vemurafenib + Foretinib; first compound 0.03162 µM)	relative viability (Vemurafenib + Foretinib; first compound 0.1 µM)	relative viability (Vemurafenib + Foretinib; first compound 1 µM)	relative viability (Vemurafenib + AZD7762; first compound 0.03162 µM)	relative viability (Vemurafenib + AZD7762; first compound 0.1 µM)	relative viability (Vemurafenib + AZD7762; first compound 0.3162 µM)	relative viability (Vemurafenib + AZD7762; first compound 1 µM)	relative viability (Vemurafenib + Pictilisib; first compound 0.03162 µM)	relative viability (Vemurafenib + Pictilisib; first compound 0.1 µM)	relative viability (Vemurafenib + Pictilisib; first compound 1 µM)	relative viability (Vemurafenib + Foretinib; first compound 0.3162 µM)	relative viability (OSI-027 + Crizotinib; first compound 0.01 µM)	relative viability (OSI-027 + Crizotinib; first compound 0.03162 µM)	relative viability (OSI-027 + Crizotinib; first compound 0.1 µM)	relative viability (OSI-027 + Crizotinib; first compound 0.3162 µM)	relative viability (OSI-027 + Crizotinib; first compound 1 µM)	relative viability (Vemurafenib + Pictilisib; first compound 0.3162 µM)
NCI-H1395	1.02	0.976	1.01	0.397	0.411	0.381	0.373	0.672	0.613	0.521	–	–	–	–	–	–	–
NCI-H1563	0.859	0.976	0.935	–	–	–	–	0.666	0.621	0.647	0.93	0.835	0.894	0.768	0.701	0.733	0.584
NCI-H1623	0.896	–	0.768	–	–	–	–	–	–	–	1.03	–	–	–	–	–	–
NCI-H1648	–	–	–	–	0.571	1.23	0.779	–	–	–	–	–	–	–	–	–	–
NCI-H1650	–	0.649	1.19	–	–	–	–	0.487	–	0.601	–	1.13	0.999	0.886	1.2	0.531	0.581
NCI-H1792	–	–	–	0.548	0.44	–	0.593	0.272	0.249	0.234	–	1.06	0.617	1.01	0.902	0.199	0.259
NCI-H1793	0.789	–	0.922	0.445	0.243	0.131	0.492	0.442	–	0.379	0.709	–	–	–	–	–	0.477
NCI-H2009	1.19	1.18	1.06	–	–	–	–	0.829	0.858	0.572	1.06	1.05	0.998	0.879	0.941	0.72	0.605
NCI-H2023	0.881	0.811	0.742	–	–	–	–	0.218	0.222	0.225	1.09	0.679	0.587	0.614	0.501	0.295	0.302
NCI-H2228	0.845	0.931	0.869	–	–	–	–	0.32	0.362	0.358	0.828	0.525	0.524	0.485	–	0.239	0.684
NCI-H2342	1.14	0.943	0.942	0.462	0.499	0.47	0.518	–	–	–	1.05	–	–	–	–	–	–
SK-LU-1	0.706	0.709	0.705	–	–	–	–	0.545	0.567	0.532	0.647	0.937	0.789	0.644	0.531	0.358	–
SK-MES-1	0.91	0.461	0.795	–	–	–	–	0.322	0.192	0.347	0.879	0.995	0.933	0.997	0.965	0.52	0.354
SW 900	1.11	0.693	0.924	0.575	0.469	0.618	0.563	–	–	–	0.801	–	–	–	–	–	–
SW 1573	0.906	0.893	0.891	–	–	–	–	0.475	0.511	0.52	0.955	0.855	0.832	0.687	0.655	0.566	0.585
